Source: US20100041089A1, “IMPROVED METHOD FOR DETECTING CHEMICAL […]” (priority 2006, published 2010)

Tested on: yeast genes (expressed mRNA)
Experiment: DNA chip measurement of expressed mRNA of yeast genes after culture with a toxic chemical substance
Format: cell-based, Saccharomyces cerevisiae S288C
Method in brief: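 Two-hour exposure of growing S. cerevisiae S288C (YPD, 25° C) to a sublethal toxicant preceded RNA isolation. Fluorescent cDNA was hybridized to a whole-genome array; a treated-to-untreated signal ratio of two or more was taken as significant.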

CCCCCCCCCCCCOS(=O)(=O)[O-].[Na+] [(18), Sodium lauryl sulfate]
The level of expressed mRNA in the presence of chemical substance/The level of expressed mRNA in the absence of chemical substance (yeast gene YAL053W, cultured two hours with substance): 1.6 | The level of expressed mRNA in the presence of chemical substance/The level of expressed mRNA in the absence of chemical substance (yeast gene YAR028W, cultured two hours with substance): 2.1 | The level of expressed mRNA in the presence of chemical substance/The level of expressed mRNA in the absence of chemical substance (yeast gene YAR031W, cultured two hours with substance): 2.5 | The level of expressed mRNA in the presence of chemical substance/The level of expressed mRNA in the absence of chemical substance (yeast gene YBL048W, cultured two hours with substance): 1.0 | The level of expressed mRNA in the presence of chemical substance/The level of expressed mRNA in the absence of chemical substance (yeast gene YBL057C, cultured two hours with substance): 1.2 | The level of expressed mRNA in the presence of chemical substance/The level of expressed mRNA in the absence of chemical substance (yeast gene YBL107C, cultured two hours with substance): 1.4 | The level of expressed mRNA in the presence of chemical substance/The level of expressed mRNA in the absence of chemical substance (yeast gene YBR005W, cultured two hours with the substance): 4.6 | The level of expressed mRNA in the presence of chemical substance/The level of expressed mRNA in the absence of chemical substance (yeast gene YCL035C (detoxification protein gene)): 4.2 | The level of expressed mRNA in the presence of chemical substance/The level of expressed mRNA in the absence of chemical substance (yeast gene YCL035C (stress protein genes)): 4.2 | The level of expressed mRNA in the presence of chemical substance/The level of expressed mRNA in the absence of chemical substance (yeast gene YCR015C, cultured two hours with the chemical substance): 1.2 | The level of expressed mRNA in the presence of chemical substance/The level of expressed mRNA in the absence of chemical substance (yeast gene YDL072C, cultured two hours with substance): 2.8 | The level of expressed mRNA in the presence of chemical substance/The level of expressed mRNA in the absence of chemical substance (yeast gene YDL110C, cultured two hours with substance): 4.4 | The level of expressed mRNA in the presence of chemical substance/The level of expressed mRNA in the absence of chemical substance (yeast gene YDL204W, cultured two hours with substance): 2.7 | The level of expressed mRNA in the presence of chemical substance/The level of expressed mRNA in the absence of chemical substance (yeast gene YDL222C, cultured two hours with substance): 1.3 | The level of expressed mRNA in the presence of chemical substance/The level of expressed mRNA in the absence of chemical substance (yeast gene YDR018C, cultured two hours with substance): 1.2 | The level of expressed mRNA in the presence of chemical substance/The level of expressed mRNA in the absence of chemical substance (yeast gene YDR031W, cultured two hours with substance): 2.5 | The level of expressed mRNA in the presence of chemical substance/The level of expressed mRNA in the absence of chemical substance (yeast gene YDR070C, cultured two hours with substance): 3.1 | The level of expressed mRNA in the presence of chemical substance/The level of expressed mRNA in the absence of chemical substance (yeast gene YDR330W, cultured two hours with substance): 1.3 | The level of expressed mRNA in the presence of chemical substance/The level of expressed mRNA in the absence of chemical substance (yeast gene YDR350C, cultured two hours with substance): 1.2 | The level of expressed mRNA in the presence of chemical substance/The level of expressed mRNA in the absence of chemical substance (yeast gene YDR391C, cultured two hours with substance): 2.4 | The level of expressed mRNA in the presence of chemical substance/The level of expressed mRNA in the absence of chemical substance (yeast gene YDR411C, cultured two hours with substance): 1.3 | The level of expressed mRNA in the presence of chemical substance/The level of expressed mRNA in the absence of chemical substance (yeast gene YDR482C, cultured two hours with substance): 1.2 | The level of expressed mRNA in the presence of chemical substance/The level of expressed mRNA in the absence of chemical substance (yeast gene YDR486C, cultured two hours with substance): 1.7 | The level of expressed mRNA in the presence of chemical substance/The level of expressed mRNA in the absence of chemical substance (yeast gene YDR511W, cultured two hours with substance): 1.5 | The level of expressed mRNA in the presence of chemical substance/The level of expressed mRNA in the absence of chemical substance (yeast gene YDR531W, cultured two hours with substance): 1.2 | The level of expressed mRNA in the presence of chemical substance/The level of expressed mRNA in the absence of chemical substance (yeast gene YDR545W, cultured two hours with substance): 0.9 | The level of expressed mRNA in the presence of chemical substance/The level of expressed mRNA in the absence of chemical substance (yeast gene YEL001C, cultured two hours with substance): 1.3 | The level of expressed mRNA in the presence of chemical substance/The level of expressed mRNA in the absence of chemical substance (yeast gene YER004W, cultured two hours with substance): 1.2 | The level of expressed mRNA in the presence of chemical substance/The level of expressed mRNA in the absence of chemical substance (yeast gene YER035W, cultured two hours with substance): 2.1 | The level of expressed mRNA in the presence of chemical substance/The level of expressed mRNA in the absence of chemical substance (yeast gene YER038C, cultured two hours with substance): 1.4 | The level of expressed mRNA in the presence of chemical substance/The level of expressed mRNA in the absence of chemical substance (yeast gene YER079W, cultured two hours with substance): 1.6 | The level of expressed mRNA in the presence of chemical substance/The level of expressed mRNA in the absence of chemical substance (yeast gene YER106W, cultured two hours with substance): 0.8 | The level of expressed mRNA in the presence of chemical substance/The level of expressed mRNA in the absence of chemical substance (yeast gene YER158C, cultured two hours with substance): 1.2 | The level of expressed mRNA in the presence of chemical substance/The level of expressed mRNA in the absence of chemical substance (yeast gene YER163C, cultured two hours with substance): 1.2 | The level of expressed mRNA in the presence of chemical substance/The level of expressed mRNA in the absence of chemical substance (yeast gene YER175C, cultured two hours with substance): 1.2 | The level of expressed mRNA in the presence of chemical substance/The level of expressed mRNA in the absence of chemical substance (yeast gene YFL006W, cultured two hours with substance): 0.8 | The level of expressed mRNA in the presence of chemical substance/The level of expressed mRNA in the absence of chemical substance (yeast gene YFL010C, cultured two hours with substance): 1.6 | The level of expressed mRNA in the presence of chemical substance/The level of expressed mRNA in the absence of chemical substance (yeast gene YFL014W, DNA repair protein genes, cultured two hours with substance): 8.8 | The level of expressed mRNA in the presence of chemical substance/The level of expressed mRNA in the absence of chemical substance (yeast gene YFL024C, cultured two hours with substance): 0.8 | The level of expressed mRNA in the presence of chemical substance/The level of expressed mRNA in the absence of chemical substance (yeast gene YFL032W, cultured two hours with substance): 0.8 | The level of expressed mRNA in the presence of chemical substance/The level of expressed mRNA in the absence of chemical substance (yeast gene YFR046C, cultured two hours with substance): 1.2 | The level of expressed mRNA in the presence of chemical substance/The level of expressed mRNA in the absence of chemical substance (yeast gene YGL006W (transport facilitation protein gene)): 4.1 | The level of expressed mRNA in the presence of chemical substance/The level of expressed mRNA in the absence of chemical substance (yeast gene YGL037C, cultured two hours with substance): 2.6 | The level of expressed mRNA in the presence of chemical substance/The level of expressed mRNA in the absence of chemical substance (yeast gene YGL047W, cultured two hours with substance): 1.2 | The level of expressed mRNA in the presence of chemical substance/The level of expressed mRNA in the absence of chemical substance (yeast gene YGL053W, cultured two hours with substance): 3.7 | The level of expressed mRNA in the presence of chemical substance/The level of expressed mRNA in the absence of chemical substance (yeast gene YGL121C, cultured two hours with substance): 3.5 | The level of expressed mRNA in the presence of chemical substance/The level of expressed mRNA in the absence of chemical substance (yeast gene YGL136C, cultured two hours with substance): 1.1 | The level of expressed mRNA in the presence of chemical substance/The level of expressed mRNA in the absence of chemical substance (yeast gene YGL199C, cultured two hours with substance): 1.0 | The level of expressed mRNA in the presence of chemical substance/The level of expressed mRNA in the absence of chemical substance (yeast gene YGR008C, cultured for two hours with substance): 4.2 | The level of expressed mRNA in the presence of chemical substance/The level of expressed mRNA in the absence of chemical substance (yeast gene YGR026W, cultured two hours with the chemical substance): 1.2 | The level of expressed mRNA in the presence of chemical substance/The level of expressed mRNA in the absence of chemical substance (yeast gene YGR035C, cultured two hours with substance): 4.3 | The level of expressed mRNA in the presence of chemical substance/The level of expressed mRNA in the absence of chemical substance (yeast gene YGR101W, cultured two hours with substance): 1.1 | The level of expressed mRNA in the presence of chemical substance/The level of expressed mRNA in the absence of chemical substance (yeast gene YGR110W, cultured two hours with substance): 2.1 | The level of expressed mRNA in the presence of chemical substance/The level of expressed mRNA in the absence of chemical substance (yeast gene YGR130C, cultured two hours with substance): 1.6 | The level of expressed mRNA in the presence of chemical substance/The level of expressed mRNA in the absence of chemical substance (yeast gene YGR154C, cultured two hours with substance): 1.2 | The level of expressed mRNA in the presence of chemical substance/The level of expressed mRNA in the absence of chemical substance (yeast gene YGR213C): 8.5 | The level of expressed mRNA in the presence of chemical substance/The level of expressed mRNA in the absence of chemical substance (yeast gene YGR221C, cultured two hours with substance): 1.3 | The level of expressed mRNA in the presence of chemical substance/The level of expressed mRNA in the absence of chemical substance (yeast gene YGR244C, cultured for two hours with substance): 3.1 | The level of expressed mRNA in the presence of chemical substance/The level of expressed mRNA in the absence of chemical substance (yeast gene YHR029C, cultured two hours with substance): 2.1 | The level of expressed mRNA in the presence of chemical substance/The level of expressed mRNA in the absence of chemical substance (yeast gene YHR138C, cultured two hours with substance): 7.1 | The level of expressed mRNA in the presence of chemical substance/The level of expressed mRNA in the absence of chemical substance (yeast gene YHR199C, cultured two hours with substance): 0.9 | The level of expressed mRNA in the presence of chemical substance/The level of expressed mRNA in the absence of chemical substance (yeast gene YIL023C, cultured two hours with substance): 1.0 | The level of expressed mRNA in the presence of chemical substance/The level of expressed mRNA in the absence of chemical substance (yeast gene YIL024C, cultured two hours with substance): 1.0 | The level of expressed mRNA in the presence of chemical substance/The level of expressed mRNA in the absence of chemical substance (yeast gene YIL041W, cultured two hours with substance): 1.1 | The level of expressed mRNA in the presence of chemical substance/The level of expressed mRNA in the absence of chemical substance (yeast gene YIL087C, cultured two hours with substance): 1.6 | The level of expressed mRNA in the presence of chemical substance/The level of expressed mRNA in the absence of chemical substance (yeast gene YIL117C, cultured two hours with substance): 2.6 | The level of expressed mRNA in the presence of chemical substance/The level of expressed mRNA in the absence of chemical substance (yeast gene YJL057C, cultured two hours with substance): 1.5 | The level of expressed mRNA in the presence of chemical substance/The level of expressed mRNA in the absence of chemical substance (yeast gene YJL066C, cultured two hours with substance): 1.5 | The level of expressed mRNA in the presence of chemical substance/The level of expressed mRNA in the absence of chemical substance (yeast gene YJL082W, cultured two hours with substance): 0.3 | The level of expressed mRNA in the presence of chemical substance/The level of expressed mRNA in the absence of chemical substance (yeast gene YJL108C, cultured two hours with substance): 0.9 | The level of expressed mRNA in the presence of chemical substance/The level of expressed mRNA in the absence of chemical substance (yeast gene YJL149W, cultured two hours with substance): 1.2 | The level of expressed mRNA in the presence of chemical substance/The level of expressed mRNA in the absence of chemical substance (yeast gene YJL151C, cultured two hours with substance): 2.4 | The level of expressed mRNA in the presence of chemical substance/The level of expressed mRNA in the absence of chemical substance (yeast gene YJL152W, cultured two hours with substance): 1.7 | The level of expressed mRNA in the presence of chemical substance/The level of expressed mRNA in the absence of chemical substance (yeast gene YJL161W, cultured two hours with substance): 2.1 | The level of expressed mRNA in the presence of chemical substance/The level of expressed mRNA in the absence of chemical substance (yeast gene YJL166W, mitochondria-located protein gene, cultured two hours with substance): 4.0 | The level of expressed mRNA in the presence of chemical substance/The level of expressed mRNA in the absence of chemical substance (yeast gene YJL171C, cultured two hours with substance): 2.9 | The level of expressed mRNA in the presence of chemical substance/The level of expressed mRNA in the absence of chemical substance (yeast gene YJL186W, cultured two hours with substance): 0.8 | The level of expressed mRNA in the presence of chemical substance/The level of expressed mRNA in the absence of chemical substance (yeast gene YJR008W, cultured two hours with substance): 2.7
